In patent US11292792B2, “Tricyclic CRBN ligands and uses thereof” (Kymera Therapeutics, Inc., priority 2018, dated 2022) one finds IC50 data, which are given here for 21 compounds.

As a reminder, the IC50 is the concentration that gives 50% inhibition.

Chain of His-tagged CRBN-DDB1 complex (Q96SW2 whole entry): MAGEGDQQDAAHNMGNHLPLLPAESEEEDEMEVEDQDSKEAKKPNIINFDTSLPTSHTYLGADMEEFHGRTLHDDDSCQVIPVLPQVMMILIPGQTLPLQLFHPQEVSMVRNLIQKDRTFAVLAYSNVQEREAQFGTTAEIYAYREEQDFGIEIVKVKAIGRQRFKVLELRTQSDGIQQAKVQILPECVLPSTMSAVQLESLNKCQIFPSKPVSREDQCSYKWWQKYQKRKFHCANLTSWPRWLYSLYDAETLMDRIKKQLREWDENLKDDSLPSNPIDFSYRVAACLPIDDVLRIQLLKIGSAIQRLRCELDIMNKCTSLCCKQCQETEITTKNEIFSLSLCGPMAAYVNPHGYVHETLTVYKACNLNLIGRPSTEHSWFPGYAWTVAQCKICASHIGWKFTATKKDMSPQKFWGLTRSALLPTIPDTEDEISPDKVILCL
Chain of His-tagged CRBN-DDB1 complex (Q16531 whole entry partner): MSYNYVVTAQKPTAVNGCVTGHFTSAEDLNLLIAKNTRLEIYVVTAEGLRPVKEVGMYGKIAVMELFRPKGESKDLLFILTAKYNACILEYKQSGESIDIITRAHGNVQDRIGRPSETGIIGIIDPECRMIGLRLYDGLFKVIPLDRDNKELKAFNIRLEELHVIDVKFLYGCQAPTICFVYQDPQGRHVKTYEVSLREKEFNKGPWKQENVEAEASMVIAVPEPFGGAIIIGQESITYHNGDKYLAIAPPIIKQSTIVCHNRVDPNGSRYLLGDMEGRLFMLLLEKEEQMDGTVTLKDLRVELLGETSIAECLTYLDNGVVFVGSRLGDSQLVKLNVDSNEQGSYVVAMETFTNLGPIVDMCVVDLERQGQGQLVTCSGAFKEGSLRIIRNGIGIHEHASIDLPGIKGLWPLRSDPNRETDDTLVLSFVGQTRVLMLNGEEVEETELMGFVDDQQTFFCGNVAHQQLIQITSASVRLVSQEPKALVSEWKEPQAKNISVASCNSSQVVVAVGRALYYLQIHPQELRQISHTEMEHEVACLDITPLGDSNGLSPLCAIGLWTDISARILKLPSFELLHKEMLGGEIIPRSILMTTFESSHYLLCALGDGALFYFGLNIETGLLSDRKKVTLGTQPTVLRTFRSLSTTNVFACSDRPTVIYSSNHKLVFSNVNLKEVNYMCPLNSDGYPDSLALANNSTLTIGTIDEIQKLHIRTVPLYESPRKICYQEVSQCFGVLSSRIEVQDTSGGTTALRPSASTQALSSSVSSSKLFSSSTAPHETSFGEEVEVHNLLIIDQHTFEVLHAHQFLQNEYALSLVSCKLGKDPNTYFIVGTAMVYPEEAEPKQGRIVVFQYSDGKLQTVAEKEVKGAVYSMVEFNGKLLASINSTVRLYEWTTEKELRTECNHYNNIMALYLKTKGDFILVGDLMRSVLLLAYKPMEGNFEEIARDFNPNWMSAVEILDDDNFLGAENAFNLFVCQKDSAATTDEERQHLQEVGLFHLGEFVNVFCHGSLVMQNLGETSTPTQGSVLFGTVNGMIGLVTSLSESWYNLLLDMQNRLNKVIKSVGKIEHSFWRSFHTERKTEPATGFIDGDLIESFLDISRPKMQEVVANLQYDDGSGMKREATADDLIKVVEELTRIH

The assay addresses His-tagged CRBN-DDB1 complex (Homo sapiens (Human), UniProt Q96SW2). The assay is described as follows: Time-resolved fluorescence resonance energy transfer (TR-FRET) assay, displacement of Cy5-labeled thalidomide. The note with it: read-out: CRBN HTRF IC50. It is filed as binding. How it is done:
Equal volumes of His-tagged CRBN-DDB1 complex (56 nM) was mixed with Eu-cryptate labeled Anti-6HIS-monoclonal antibody (50× dilution from the commercial stock solution, Vender: Cisbio, Cat. #61HI2KLA) in a final buffer containing 20 mM HEPES pH 7.0, 150 mM NaCl, 0.005% Tween-20. […] The mixture were incubated at room temperature for 1 hour. FRET signals were measured on an EnVision plate reader (Perkin Elmer) by exciting at 340 nm and recording emission at both 615 nm as no FRET control and 665 nm as the FRET signals with a 60 microsecond delay. FRET efficiency was calculated as the ratio of fluorescent signals at […]. Quantitative loss of FRET efficiency as a function of compound concentrations was fitted by a four-parameter Logistic Function using GraphPad Prism 7.0 and the IC50 values were reported for each compound.
The compound numbers correspond to the compound numbers in Table 1.
Background: TR-FRET usually uses a lanthanide donor and a delayed reading to cut background.
For `COc1nccc2c3ccccc3n(C3CCC(=O)NC3=O)c12` (stereo not drawn) [I-65], the IC50 was 30 to 100 µM.
Then `CNc1ccc2c(c1)c1cccnc1n2C1CCC(=O)NC1=O` (stereo not drawn) [I-27, 3-(6-(methylamino)-9H-pyrido[2,3-b]indol-9-yl)piperidine-2,6-dione], with less than 10 µM.
The figure for `O=C1CCC(n2c3ccccc3c3c(C#CCOCCOCCOCc4ccccc4)ccnc32)C(=O)N1` (stereo not drawn) [I-49] is less than 10 µM.
Turning to `CC(C)(C)OC(=O)NCCOCCOCCCc1ccc2c(c1)c1cccnc1n2C1CCC(=O)NC1=O` (stereo not drawn) [I-62], the IC50 is less than 10 µM.
As to `CC(C)(C)OC(=O)NCCOCCOCCCc1ccc2c3cccnc3n(C3CCC(=O)NC3=O)c2c1` (stereo not drawn) [I-58], the IC50 was in the range of 10 to 30 µM.
The figure for `CCOC(=O)Nc1ccc2c(c1)c1cccnc1n2C1CCC(=O)NC1=O` (stereo not drawn) [I-29, ethyl (9-(2,6-dioxopiperidin-3-yl)-9H-pyrido[2,3-b]indol-6-yl)carbamate] is 10 to 30 µM; for `O=C1CCC(n2c3ccccc3c3ccnc(O)c32)C(=O)N1` (stereo not drawn) [I-105] it is 10 to 30 µM.
For `O=C1CCC(n2c3c(c4cccnc42)CN(Cc2ccccc2)CC3)C(=O)N1` (stereo not drawn) [I-55, 3-(6-benzyl-7,8-dihydro-5H-pyrrolo[2,3-b:4,5-c′]dipyridin-9(6H)-yl)piperidine-2,6-dione], the IC50 fell in the range of 30 to 100 µM.
Take `O=C1CCC(n2c3ccccc3c3ccccc32)C(=O)N1` (stereo not drawn) [I-1, 3-(9H-Carbazol-9-yl)piperidine-2,6-dione]: the IC50 is 10 to 30 µM.
Consider `CC(C)(C)OC(=O)N1CCN(CCc2ccc3c(c2)c2cccnc2n3C2CCC(=O)NC2=O)CC1` (stereo not drawn) [I-64, tert-butyl 4-(2-(9-(2,6-dioxopiperidin-3-yl)-9H-pyrido[2,3-b]indol-6-yl)ethyl)piperazine-1-carboxylate], for which the IC50 is less than 10 µM.
Take `CC(=O)Nc1ccc2c(c1)c1cccnc1n2C1CCC(=O)NC1=O` (stereo not drawn) [I-8, N-(9-(2,6-Dioxopiperidin-3-yl)-9H-pyrido[2,3-b]indol-6-yl)acetamide]: the concentration for half-maximal inhibition (IC50) was less than 10 µM.
As to `CN(C)c1ccc2c3ccccc3n(C3CCC(=O)NC3=O)c2n1` (stereo not drawn) [I-80, 3-(2-(dimethylamino)-9H-pyrido[2,3-b]indol-9-yl)piperidine-2,6-dione], the IC50 lay in the range of 10 to 30 µM.
Turning to `CC(C)(C)OC(=O)NCCOCCOCC#Cc1ccc2c(c1)c1cccnc1n2C1CCC(=O)NC1=O` (stereo not drawn) [I-63], the IC50 is less than 10 µM.
Regarding `O=C1CCC(n2c3cc(CCCOCCOCCO)ccc3c3cccnc32)C(=O)N1` (stereo not drawn) [I-53], the IC50 was in the range of 10 to 30 µM.
With `CC(C)(C)OC(=O)NCCOCCOCCCc1cccc2c1c1cccnc1n2C1CCC(=O)NC1=O` (stereo not drawn) [I-60], the concentration for half-maximal inhibition (IC50) was less than 10 µM.
Then `CC(C)(C)OC(=O)NC1CCN(CCc2ccc3c(c2)c2cccnc2n3C2CCC(=O)NC2=O)CC1` (stereo not drawn) [I-71, tert-butyl (1-(2-(9-(2,6-dioxopiperidin-3-yl)-9H-pyrido[2,3-b]indol-6-yl)ethyl)piperidin-4-yl)carbamate], with less than 10 µM.
On to `O=C1CCC(n2c3ccccc3c3ccc(Cl)nc32)C(=O)N1` (stereo not drawn) [I-75], for which the concentration for half-maximal inhibition (IC50) is less than 10 µM.
Take `N#Cc1ccnc2c1c1ccccc1n2C1CCC(=O)NC1=O` (stereo not drawn) [I-76, 9-(2,6-dioxopiperidin-3-yl)-9H-pyrido[2,3-b]indole-4-carbonitrile]: the IC50 was less than 10 µM.
For the compound `CC(C)(C)OC(=O)NCCOCCCc1ccc2c(c1)c1cccnc1n2C1CCC(=O)NC1=O` (stereo not drawn) [I-34, tert-butyl (2-(3-(9-(2,6-dioxopiperidin-3-yl)-9H-pyrido[2,3-b]indol-6-yl)propoxy)ethyl)carbamate], the half-maximal inhibitory concentration (IC50) was less than 10 µM.
For `CN(CCCOCCCc1ccc2c(c1)c1cccnc1n2C1CCC(=O)NC1=O)C(=O)OC(C)(C)C` (stereo not drawn) [I-44], the concentration for half-maximal inhibition (IC50) is less than 10 µM.
As for `CC(C)(C)OC(=O)NCCOCCOCC(=O)NCc1ccc2c(c1)c1cccnc1n2C1CCC(=O)NC1=O` (stereo not drawn) [I-36, tert-butyl (2-(2-(2-(((9-(2,6-dioxopiperidin-3-yl)-9H-pyrido[2,3-b]indol-6-yl)methyl)amino)-2-oxoethoxy)ethoxy)ethyl)carbamate], the IC50 is less than 10 µM.
